Patent publication US5710174A, “Factor XIIIA inhibitor” (Zymo Genetics, Inc., priority 1995, dated 1998)
Read-outs that look alike come from different tables or passages of the source.

Legend:
papain = molecular target: T1, papain (Carica papaya, UniProt P00784); assay: Papain inhibition assay; format: biochemical; conditions: for Papain inhibition (result in words, IC50 table): 100 μM to 10 nM, 30 min at 37° C.
T1 construct: purchased Boehringer Mannheim
T1 sequence (P00784 134-345): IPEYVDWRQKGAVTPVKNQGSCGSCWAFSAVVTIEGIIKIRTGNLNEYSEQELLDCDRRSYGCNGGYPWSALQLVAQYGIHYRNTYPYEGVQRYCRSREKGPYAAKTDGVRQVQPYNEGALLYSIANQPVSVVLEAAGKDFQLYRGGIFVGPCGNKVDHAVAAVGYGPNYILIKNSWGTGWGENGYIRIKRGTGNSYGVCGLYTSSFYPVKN
Description: For the papain inhibition assay, a buffer containing 0.1M NaPO4 and 2.5 mM EDTA at about pH 7.0 was used. An Azocoll™ solution was prepared by adding 5 mg Azocoll™ (Calbiochem; an insoluble, powdered cowhide to which a bright red dye is attached (azo-dye-bound collagen)) to the buffer while stirring. The Azocoll was prewarmed to about 37° C. 10 μl of 0.1M L-cysteine, 10 μl of 50 μg/ml papain (Boehringer Mannheim), 0.5 ml of Azocoll solution, and 50 μl of one of a series of concentrations of ZG-1400a, iodoacetamide, iodoacetic acid, cerulenin, or 50 μl of the DMSO or ethanol negative controls were added to duplicate 13×75 mm glass tubes. The ZG-1400a, iodoacetamide, and iodoacetic acid were individually prepared in 10% DMSO and tested using half-log dilutions, starting at a final assay concentration of 100 μM and diluting to 10 nM. Cerulenin was prepared in 10% ethanol and tested using half-log dilutions, starting at a final assay concentration of 100 μM and diluting to 10 nM. A negative (no inhibition) control for ZG-1400a, iodoacetamide and iodoacetic acid was 50 μl of 10% DMSO to give a final assay concentration of 1% DMSO in each control tube. A negative control for cerulenin was 50 μl of 10% ethanol to give a final assay concentration of 1% ethanol in each control tube. The test and control tubes then were incubated for 30 min at 37° C. in an agitated water bath.
After incubation, all of the tubes were centrifuged at 2000 RPM for 5 min. The supernatant was removed and its absorbance was read at 520 nm on a Beckman DU640 spectrophotometer to determine the amount of papain inhibition.

[1] = molecular target: T2, tissue transglutaminase (tTG) (Cavia cutleri, UniProt P08587); assay: tTG screening assay; format: biochemical
T2 construct: purchased Sigma
T2 sequence (P08587 1-690): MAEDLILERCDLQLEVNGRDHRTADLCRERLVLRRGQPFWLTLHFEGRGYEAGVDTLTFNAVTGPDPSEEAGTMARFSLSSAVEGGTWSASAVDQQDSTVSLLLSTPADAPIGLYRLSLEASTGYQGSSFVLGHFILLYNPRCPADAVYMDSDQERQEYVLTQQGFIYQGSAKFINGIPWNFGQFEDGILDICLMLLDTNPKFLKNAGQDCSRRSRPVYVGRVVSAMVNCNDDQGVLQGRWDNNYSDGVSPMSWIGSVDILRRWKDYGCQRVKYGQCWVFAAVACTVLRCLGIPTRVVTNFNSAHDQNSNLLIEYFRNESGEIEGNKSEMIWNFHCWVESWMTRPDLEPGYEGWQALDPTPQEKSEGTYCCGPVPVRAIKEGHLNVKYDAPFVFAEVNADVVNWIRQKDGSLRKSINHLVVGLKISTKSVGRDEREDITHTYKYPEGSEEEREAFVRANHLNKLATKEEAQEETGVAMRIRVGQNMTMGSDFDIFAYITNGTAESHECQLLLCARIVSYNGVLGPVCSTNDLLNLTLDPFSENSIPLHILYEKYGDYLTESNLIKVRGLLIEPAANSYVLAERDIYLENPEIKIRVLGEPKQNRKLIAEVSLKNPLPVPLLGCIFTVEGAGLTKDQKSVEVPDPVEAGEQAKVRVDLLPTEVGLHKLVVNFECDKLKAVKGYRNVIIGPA
Source text: Because FXIII is a member of the tissue transglutaminase (tTG) family, all potential FXIIIa inhibitors identified in the primary FXIIIa screening assay were further screened for tTG (non-FXIII-specific) inhibitory activity. The tTG screening assay was identical to the primary FXIIIa screening assay, except that tTG (Sigma) was used instead of FXIIIa and no thrombin or PPACK was used.
The determination of IC50 values was done the same as in the primary FXIIIa screening assay, except that purified compounds were used at varying concentrations (instead of crude culture extracts). The IC50 values allow one to make comparisons of one compound to another.

[2] = purified compound, read-out: IC50 tTG Screen

SMILES	Papain inhibition (result in words, IC50 table) (papain; listed as ZG-1400a)	Papain inhibition (result in words, IC50 table) (papain; listed as ZG-1440)	inhibition of tTG ([1]; 0.01X concentration)	inhibition of tTG ([1]; 0.1X concentration)	IC50 [1, 2] [µM]	Papain inhibition (result in words, IC50 table) (papain)	Papain inhibition (result in words, IC50 table) (papain; listed as cerulenin)	IC50 (papain) [µM]	IC50 [1] [µM]
C[C@@H]1CCC/C=C\C(=O)Cc2cc(O)cc(O)c2C(=O)O1 [ZG-1400, R(-) enantiomer of cis-resorcylide]	did not inhibit papain activity	No inhibition	about 95%	about 70%	3.1				
CC=CCC=CCCC(=O)C1OC1C(N)=O (centres unmarked) [Cerulenin, 2,3-epoxy-4-oxo-7,10-dodecadienamide]					25	No inhibition	did not inhibit papain activity		
NC(=O)CI [Iodoacetamide, iodoacetamide]						did cause inhibition		0.01	10
